In patent publication US20260232812A1, “BIFUNCTIONAL MOLECULES FOR TARGETED PROTEIN DEGRADATION” (Amphista Therapeutics Limited, priority 2022, published 2026):

Key:
BRD9 [1] = target: T1, BRD9 (Homo sapiens, UniProt Q9H8M2); assay: Assay Protocol 1 - Degradation of HiBit-BRD9 in HEK293; type: cell-based; conditions: titration up to 10 μM; for Dmax: HEK293, Assay Protocol 1: HiBit-BRD9 in HEK293, 6 h
T1 sequence (Q9H8M2 1-597): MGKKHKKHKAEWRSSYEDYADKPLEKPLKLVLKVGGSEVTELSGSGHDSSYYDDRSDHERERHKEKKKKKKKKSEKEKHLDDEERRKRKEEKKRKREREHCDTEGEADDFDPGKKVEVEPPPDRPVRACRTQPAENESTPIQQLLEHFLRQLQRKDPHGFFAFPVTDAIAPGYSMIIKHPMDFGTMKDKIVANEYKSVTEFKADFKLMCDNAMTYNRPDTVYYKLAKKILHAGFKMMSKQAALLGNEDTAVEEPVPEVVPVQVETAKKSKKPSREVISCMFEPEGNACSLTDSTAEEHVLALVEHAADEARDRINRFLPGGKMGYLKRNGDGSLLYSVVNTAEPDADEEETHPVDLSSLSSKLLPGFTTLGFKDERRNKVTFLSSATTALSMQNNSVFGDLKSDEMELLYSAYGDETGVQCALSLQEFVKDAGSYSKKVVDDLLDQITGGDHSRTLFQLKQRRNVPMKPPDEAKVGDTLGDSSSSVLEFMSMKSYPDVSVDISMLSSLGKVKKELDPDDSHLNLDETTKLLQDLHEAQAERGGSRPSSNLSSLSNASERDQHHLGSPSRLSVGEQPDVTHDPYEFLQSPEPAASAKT
Procedure: Assay Protocol 1—Degradation of HiBit-BRD9 in HEK293
HEK293 stably expressing LgBit and containing a HiBit insertion for BRD9 were plated in 384-well tissue culture plates at a density of 8×10^3 per well in a volume of 36 μL and incubated overnight at 37° C. and 5% CO2. Wells were treated with test compounds (11 pt titration up to 10 μM) for 6 h prior to addition of Nano-Glo® Hibit Lytic buffer (1:50 substrate and 1:100 LgBit protein) and reading on a PheraSTAR. Degradation data was plotted and analysed using Prism 8 (Graphpad).

BRD9 [2] = target: T1, BRD9; assay: Assay Protocol 2 - Degradation of BRD9 (IF) in MV4-11 cells; type: cell-based; design: host or cells: MV4-11; conditions: Assay Protocol 2: BRD9 immunofluorescence, 24 hours
Procedure: Assay Protocol 2—Degradation of BRD9 (IF)
A suspension of MV4-11 cells (ATCC CRL-9591) was prepared in phenol red-free assay media (IMDM Thermo Scientific 21056023+10% FBS ATCC 302025) and cells were seeded at 20,000 cells per well (45 μL) in sterile black poly-d-lysine coated 384 well plates (Greiner 781948). Compounds were prepared at 1000× final concentration in DMSO, diluted 1:100 in assay media, and 5 μL compound was added to each well of the cell plate. Cells were incubated for 24 hours at 37° C. with 5% CO2. All the following incubations for immunofluorescence staining were at room temperature. 15 μL of 16% PFA was added to each well (3.7% final concentration) and the cells were fixed for 15 min then washed twice with DPBS. Cells were permeabilised with 0.1% Triton X-100 for 10 min, Triton X-100 was removed, then blocked with 1% BSA in DPBS for 1 hour. Cells were stained with 25 μL anti-BRD9 E4Q3F antibody (CST 48306) diluted 1:25600 in 1% BSA in DPBS for 2-3 hours. Wells were washed twice with DPBS then incubated with 25 μL of 1% BSA containing a 1:1000 dilution of Anti-rabbit Alexa Fluor™ 647 secondary antibody (Thermo Scientific A^21244) and 1 μg/mL Hoechst nuclear counter stain (Abcam ab228551) for 1 hour. Wells were washed twice with DPBS prior to imaging on a Perkin Elmer Operetta CLS with 10× air lens. Images were processed using Harmony High-Content Imaging and Analysis Software (Perkin Elmer) and the mean contrast ratio of Alexa Fluor™ 647 in central nuclei was used to quantify BRD9 protein levels. Data was further analysed using Dotmatics software and % BRD9 remaining was calculated by normalisation to average data from high and low control wells (cells treated with DMSO or 100 nM CFT-8634 respectively).

[3] = Assay Protocol 1: HiBit-BRD9 in HEK293, 6 h

| DC50 (BRD9 [1]; [3]) [nM] | DC50 (BRD9 [2]) [nM] | SMILES | Dmax (BRD9 [2]) [%] | also measured |
| --- | --- | --- | --- | --- |
| – | – | COc1cc(-c2cn(C)c(=O)c(C)c2C)cc(OC)c1CN1CC2CC(C1)N2C(=O)/C(C#N)=C/c1cccc(Br)n1 (mixture of isomers) [BRD9m, (E/Z)-3-(6-bromopyridin-2-yl)-2-(3-(2,6-dimethoxy-4-(1,4,5-trimethyl-6-oxo-1,6-dihydropyridin-3-yl)benzyl)-3,6-diazabicyclo[3.1.1]heptane-6-carbonyl)acrylonitrile] | ≥ 70 | – |
| – | > 200 | COc1cc(-c2cn(C)c(=O)c(C)c2C)cc(OC)c1CN1CC2CC1CN2C(=O)/C(C#N)=C/c1nccs1 (mixture of isomers) [BRD9i, (E/Z)-2-(5-(2,6-dimethoxy-4-(1,4,5-trimethyl-6-oxo-1,6-dihydropyridin-3-yl)benzyl)-2,5-diazabicyclo[2.2.1]heptane-2-carbonyl)-3-(thiazol-2-yl)acrylonitrile] | 30 to 50 | – |
| < 25 | < 25 | COc1cc(-c2cn(C)c(=O)c(C)c2C)cc(OC)c1CN(C)C1CCN(C(=O)/C(C#N)=C/C23CC(C2)C3)CC1 (mixture of isomers) [BRD9ae, (E/Z)-3-(bicyclo[1.1.1]pentan-1-yl)-2-(4-((2,6-dimethoxy-4-(1,4,5-trimethyl-6-oxo-1,6-dihydropyridin-3-yl)benzyl)(methyl)amino)piperidine-1-carbonyl)acrylonitrile] | ≥ 70 | Dmax (BRD9 [1]): ≥ 70% |
| < 25 | < 25 | COc1cc(-c2cn(C)c(=O)c(C)c2C)cc(OC)c1CN(C)C1CCN(C(=O)/C(C#N)=C/C(C)(C)C)CC1 [BRD9d, (E/Z)-2-(4-((2,6-dimethoxy-4-(1,4,5-trimethyl-6-oxo-1,6-dihydropyridin-3-yl)benzyl)(methyl)amino)piperidine-1-carbonyl)-4,4-dimethylpent-2-enenitrile] | – | – |
| – | < 25 | COc1ccc([C@@H]2CN(C(=O)/C(C#N)=C/c3nccs3)C[C@H]2C(=O)N2CCN(Cc3c(OC)cc(-c4cn(C)c(=O)c(C)c4C)cc3OC)CC2)cc1 [BRD9be] | – | Dmax^1 (BRD9 [1]; [3]): ++ (++ = ≥50% and <70%); Dmax^2 (BRD9 [2]): +++ (+++ = ≥70%) |
| > 200 | – | COc1cc(-c2cn(C)c(=O)c(C)c2C)cc(OC)c1CN1CCN(C(=O)/C(C#N)=C/c2nccs2)CC1 [BRD9g, (E/Z)-2-(4-(2,6-dimethoxy-4-(1,4,5-trimethyl-6-oxo-1,6-dihydropyridin-3-yl)benzyl)piperazine-1-carbonyl)-3-(thiazol-2-yl)acrylonitrile] | – | Dmax (BRD9 [1]): 30 to 50% |
| < 25 | < 25 | COc1cc(-c2cn(C)c(=O)c(C)c2C)cc(OC)c1CN1CCC2(CC1)CCN(C(=O)/C(C#N)=C/c1cccc(Br)n1)CC2 [BRD9r, (E/Z)-3-(6-bromopyridin-2-yl)-2-(9-(2,6-dimethoxy-4-(1,4,5-trimethyl-6-oxo-1,6-dihydropyridin-3-yl)benzyl)-3,9-diazaspiro[5.5]undecane-3-carbonyl)acrylonitrile] | – | Dmax (BRD9 [1]): ≥ 70% |
| – | 25 to 200 | COc1cc(-c2cn(C)c(=O)c(C)c2C)cc(OC)c1C(=O)N1CC2CC1CN2C(=O)/C(C#N)=C/C(C)(C)C (mixture of isomers) [BRD9t, (E/Z)-2-(5-(2,6-dimethoxy-4-(1,4,5-trimethyl-6-oxo-1,6-dihydropyridin-3-yl)benzoyl)-2,5-diazabicyclo[2.2.1]heptane-2-carbonyl)-4,4-dimethylpent-2-enenitrile] | – | – |
| – | > 200 | COc1cc(-c2cn(C)c(=O)c(C)c2C)cc(OC)c1CN1CC2CC1CN2C(=O)/C(C#N)=C/C(C)(C)C (mixture of isomers) [BRD9b, (E/Z)-2-(5-(2,6-dimethoxy-4-(1,4,5-trimethyl-6-oxo-1,6-dihydropyridin-3-yl)benzyl)-2,5-diazabicyclo[2.2.1]heptane-2-carbonyl)-4,4-dimethylpent-2-enenitrile] | – | – |
| – | 25 to 200 | COc1cc(-c2cn(C)c(=O)c(C)c2C)cc(OC)c1C(=O)N1CCN(C(=O)/C(C#N)=C/C(C)(C)C)CC1 [BRD9s, (E/Z)-2-(4-(2,6-dimethoxy-4-(1,4,5-trimethyl-6-oxo-1,6-dihydropyridin-3-yl)benzoyl)piperazine-1-carbonyl)-4,4-dimethylpent-2-enenitrile] | – | – |
| – | 25 to 200 | COc1cc(-c2cn(C)c(=O)c(C)c2C)cc(OC)c1C(=O)N1CCCN(C(=O)/C(C#N)=C/C(C)(C)C)CC1 [BRD9v, (E/Z)-2-(4-(2,6-dimethoxy-4-(1,4,5-trimethyl-6-oxo-1,6-dihydropyridin-3-yl)benzoyl)-1,4-diazepane-1-carbonyl)-4,4-dimethylpent-2-enenitrile] | – | – |
| – | 25 to 200 | COc1cc(-c2cn(C)c(=O)c(C)c2C)cc(OC)c1CN1C[C@@H](C)N(C(=O)/C(C#N)=C/C(C)(C)C)C[C@@H]1C [BRD9ad, (E)-2-((2R,5S)-4-(2,6-dimethoxy-4-(1,4,5-trimethyl-6-oxo-1,6-dihydropyridin-3-yl)benzyl)-2,5-dimethylpiperazine-1-carbonyl)-4,4-dimethylpent-2-enenitrile] | 50 to 70 | – |
| – | < 25 | COc1cc(-c2cn(C)c(=O)c(C)c2C)cc(OC)c1CN1CCN(C(=O)C2CC(C)CN(C(=O)/C(C#N)=C/C(C)(C)C)C2)CC1 (centres unmarked) [BRD9ba, (E)-2-(3-(4-(2,6-dimethoxy-4-(1,4,5-trimethyl-6-oxo-1,6-dihydropyridin-3-yl)benzyl)piperazine-1-carbonyl)-5-methylpiperidine-1-carbonyl)-4,4-dimethylpent-2-enenitrile] | ≥ 70 | – |
| 25 to 200 | – | COc1cc(-c2cn(C)c(=O)c3ccsc23)cc(OC)c1CN1CCN(C(=O)/C(C#N)=C/C(C)(C)C)CC1 [BRD9w, (E/Z)-2-(4-(2,6-dimethoxy-4-(5-methyl-4-oxo-4,5-dihydrothieno[3,2-c]pyridin-7-yl)benzyl)piperazine-1-carbonyl)-4,4-dimethylpent-2-enenitrile] | – | – |

| SMILES | DC50 (BRD9 [1]; [3]) [nM] | DC50 (BRD9 [2]) [nM] | Dmax (BRD9 [2]) [%] | also measured |
| --- | --- | --- | --- | --- |
| COc1cc(-c2cn(C)c(=O)c(C)c2C)cc(OC)c1CN1C2CC1CN(C(=O)/C(C#N)=C/c1nccs1)C2 (mixture of isomers) [BRD9n, (E/Z)-2-(6-(2,6-dimethoxy-4-(1,4,5-trimethyl-6-oxo-1,6-dihydropyridin-3-yl)benzyl)-3,6-diazabicyclo[3.1.1]heptane-3-carbonyl)-3-(thiazol-2-yl)acrylonitrile] | < 25 | < 25 | ≥ 70 | – |
| COc1cc(-c2cn(C)c(=O)c(C)c2C)cc(OC)c1CN1C2CC1CN(C(=O)/C(C#N)=C/c1cccc(C(F)(F)F)n1)C2 [BRD9af, (E)-2-(6-(2,6-dimethoxy-4-(1,4,5-trimethyl-6-oxo-1,6-dihydropyridin-3-yl)benzyl)-3,6-diazabicyclo[3.1.1]heptane-3-carbonyl)-3-(6-(trifluoromethyl)pyridin-2-yl)acrylonitrile] | – | < 25 | ≥ 70 | – |
| COc1cc(-c2cn(C)c(=O)c(C)c2C)cc(OC)c1CN1C2CC1CN(C(=O)/C(C#N)=C/C1(F)CC1)C2 [BRD9ag, (E)-2-(6-(2,6-dimethoxy-4-(1,4,5-trimethyl-6-oxo-1,6-dihydropyridin-3-yl)benzyl)-3,6-diazabicyclo[3.1.1]heptane-3-carbonyl)-3-(1-fluorocyclopropyl)acrylonitrile] | – | < 25 | ≥ 70 | – |
| COc1cc(-c2cn(C)c(=O)c(C)c2C)cc(OC)c1CN1C2CC1CN(C(=O)/C(C#N)=C/C1(C(F)(F)F)CCC1)C2 (mixture of isomers) [BRD9p, (E/Z)-2-(6-(2,6-dimethoxy-4-(1,4,5-trimethyl-6-oxo-1,6-dihydropyridin-3-yl)benzyl)-3,6-diazabicyclo[3.1.1]heptane-3-carbonyl)-3-(1-(trifluoromethyl)cyclobutyl)acrylonitrile] | – | 25 to 200 | 50 to 70 | – |
